We go through two compounds from patent US4276890A, “Tobacco smoking inhibitor” (priority 1979, dated 1981).

In one data set the test system is smoking behavior. The note with it: cited from earlier work.
In data set [1] the test system is spontaneous motor activity. The conditions noted are these: mice, 75 mg/kg; cited from earlier work.
The test system of the next data set is rat brain cortex slices. The note with it: in vitro; cited from earlier work.
The subject of another data set is mice. The conditions noted are these: cited from earlier work.
The subject of data set [2] is convulsions produced by pentylenetetrazole or strychnine. The conditions noted are these: 300 to 500 mg per kg; cited from earlier work.
The test system of data set [3] is rate of weight gain in animals. The note with it: animal feeds, up to 200 grams per ton; cited from earlier work.
For data set [4] the following is noted: cited from earlier work.
Data set [5] deals with tobacco consumption of habitual smokers. The data set is described as follows: General observations of treatment on tobacco consumption and subjective effects. Format: in vivo, human (test subjects. The text has this: In a preferred embodiment, finely divided ethyl maltol is distributed in a chewing gum base, which when chewed by the subject, results in a gradual release of ethyl maltol into the oral cavity. When administered in appropriate amounts over a period of several days, there results a gradual decrease in the number of cigarettes smoked and the length of time they are smoked. […] Reductions in the frequency and quantity of smoking have been observed in test subjects who were unaware that their smoking behavior was monitored. […] Subjectively, test subjects experience a reduced desired to smoke, tend to neglect the opportunities to light up a cigarette and tend to leave cigarettes unsmoked in the ashtray after a few puffs. The effect is sufficiently subtle that a smoker is sometimes unaware that their tobacco consumption rate was decreased until such point as the lowered consumption rate becomes obvious. For smokers sincerely desiring to reduce or eliminate their smoking, the effect of the treatment is most gratifying. However, for smokers who are not psychologically committed to giving up smoking, the effects may be alarming. It is of course, possible to override the effects of the treatment by conscious effort to smoke at the pre-treatment rate.
Smoking behavior is complex and includes cigarette, pipe and cigar smoking. Both from the standpoint of habituation and of health hazard, cigarette smoking is considered to be the most serious. It is contemplated that the treatment method described herein will be effective to inhibit all forms of smoking behavior and combinations thereof, involving the consumption of tobacco. For convenience, the ensuing discussion focuses on cigarette smoking, as exemplary of smoking behavior in general. Tobacco consumption is a function the number of cigarettes smoked and the proportion of each cigarette smoked. Reduction of consumption is measured by comparison with a smoker's pretreatment consumption rate. All data used herein are expressed as percent reduction, i.e., the differential between pretreatment and current smoking consumption rate divided by the pretreatment rate, times 100. All rates are calculated to take into account both the number of cigarettes smoked and the proportion of each smoked.
Duration of treatment may be as little as ten days, preferably 20 to 30 days. As might be expected with a complex behavior such as smoking, where psychological and social factors play a major role in addition to individual variations in nicotine susceptibility and responsiveness to gamma pyrone, the rate of smoking reduction during treatment is highly variable. Typically, a gradual reduction to about 50% to the pretreatment rate is observed over the first four to six days. Frequently, little or no reduction is observed for the first two days, although occasionally a dramatic reduction is observed almost immediately. In the ensuing seven to ten days, further reductions, typically 70 to 100%, are observed. Reduction below the 50% level in the first 3-5 days is sometimes accompanied by the physiological (but not psychological) symptoms of nicotine withdrawl, such as vertigo, alimentary distress, diuresis, scotoma and disorientation. Such symptoms have never been observed in non-smoking control subjects using the same gamma pyrone dosages. […] The entire course of treatment is therefore extended somewhat, preferably to about 20 to 30 days total. […]

Data set [6] has as its system hexobarbital-induced sleeping time. The conditions noted are these: 300 to 500 mg per kg; cited from earlier work.
For data set [7] the following is noted: cited from earlier work. This is another data set of the same source.

Molecules are shown by their SMILES.

Turning to `CN1[C@@H](CC(=O)c2ccccc2)CCC[C@H]1C[C@H](O)c1ccccc1` [lobeline], the “effectiveness versus placebo for smoking” value with smoking behavior (controlled double blind tests) is given as “ineffective, i.e., no more effective than placebos”. For the same compound, in the data set on smoking behavior (in vivo), the pharmacological action entry was “weak nicotine-like action” and the “withdrawal syndrome on discontinuation” value is recorded as “apparently discontinuable without a withdrawal syndrome”.

Consider `Cc1occc(=O)c1O` [maltol, 3-hydroxy-2-methyl-4-pyrone], for which the “spontaneous motor activity, decrease” value in data set [1] is recorded as “approximately 50%”. Further, in the data set with rat brain cortex slices, the “oxygen intake by rat brain cortex slices” value is listed as “not affected”. Besides, in the data set on mice, the “acute LD50” value is 820 mg per kg. The “convulsions produced by pentylenetetrazole or strychnine” value in [2] is recorded as “inhibited convulsions”. The “rate of weight gain” value in [3] is “improves the rate of weight gain”. In addition, in [4] (after oral administration), the absorption result was “rapidly absorbed”; the excretion result was “rapidly excreted”; the form of excretion entry is “primarily as glucuronide and ethereal sulfate conjugates”. Further, the metabolism and excretion entry in data set [4] (in vivo) was “rapidly metabolized and excreted”. Besides, the “tobacco consumption of habitual smokers” value in data set [5] (appropriate dosage levels and rates) was “significantly reduces the tobacco consumption of habitual smokers”. Moreover, the “minimum effective dose relative to ethyl maltol” value in data set [5] (in vivo) is listed as 4 to 6 times greater. The hexobarbital-induced sleeping time result in data set [6] is given as “potentiating hexobarbital-induced sleeping time”. In addition, in data set [7] (as much as 1.5 grams per day), the consumption per day result is given as “completely harmless”. In addition, the “safe average daily intake” value in data set [7] (per day) is given as 1 mg per kg.
